12 compounds from ChEMBL document CHEMBL1909046, “DrugMatrix in vitro pharmacology data” can be followed below.

In general, IC50 refers to the concentration at which inhibition is half-maximal. Broadly, the Ki is the equilibrium dissociation constant of an inhibitor or competing ligand from its target.

Test [1] concerns the target T1, Alpha-1A adrenergic receptor (Rattus norvegicus, UniProt P43140).
T1 sequence (P43140 whole entry): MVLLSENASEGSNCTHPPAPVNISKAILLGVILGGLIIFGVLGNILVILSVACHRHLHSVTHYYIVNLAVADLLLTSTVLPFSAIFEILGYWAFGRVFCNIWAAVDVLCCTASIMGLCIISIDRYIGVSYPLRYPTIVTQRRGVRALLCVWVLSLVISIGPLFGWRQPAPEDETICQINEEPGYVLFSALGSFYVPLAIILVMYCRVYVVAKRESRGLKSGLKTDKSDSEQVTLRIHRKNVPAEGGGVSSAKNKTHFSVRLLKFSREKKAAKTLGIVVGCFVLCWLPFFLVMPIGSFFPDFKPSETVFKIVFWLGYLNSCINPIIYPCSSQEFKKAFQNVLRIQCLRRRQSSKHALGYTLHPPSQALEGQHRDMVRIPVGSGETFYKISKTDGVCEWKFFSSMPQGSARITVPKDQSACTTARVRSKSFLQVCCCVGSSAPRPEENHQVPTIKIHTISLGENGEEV
The experiment in a line: DRUGMATRIX: Alpha-1A adrenergic receptor radioligand binding (ligand: prazosin). The conditions noted are these: Not Active = under 50% inhibition at 10 µM. The format is cell membranes, Wistar, Submaxillary gland, Membrane.

A further test has as its target Vasopressin V1a receptor (Homo sapiens, UniProt P37288). It is filed as cell membranes, Membrane. The conditions noted are these: hek293. Note: in other assays of this panel Not Active means under 50% inhibition at 10 µM.
The next test has as its target Insulin receptor (Rattus norvegicus, UniProt P15127). It is filed as cell membranes, Wistar, Liver, Membrane. Note: in other assays of this panel Not Active means under 50% inhibition at 10 µM.
Test [2] has as its target T2, Cysteinyl leukotriene receptor 1 (Homo sapiens, UniProt Q9Y271). Note: in other assays of this panel Not Active means under 50% inhibition at 10 µM.
T2 sequence (Q9Y271 whole entry): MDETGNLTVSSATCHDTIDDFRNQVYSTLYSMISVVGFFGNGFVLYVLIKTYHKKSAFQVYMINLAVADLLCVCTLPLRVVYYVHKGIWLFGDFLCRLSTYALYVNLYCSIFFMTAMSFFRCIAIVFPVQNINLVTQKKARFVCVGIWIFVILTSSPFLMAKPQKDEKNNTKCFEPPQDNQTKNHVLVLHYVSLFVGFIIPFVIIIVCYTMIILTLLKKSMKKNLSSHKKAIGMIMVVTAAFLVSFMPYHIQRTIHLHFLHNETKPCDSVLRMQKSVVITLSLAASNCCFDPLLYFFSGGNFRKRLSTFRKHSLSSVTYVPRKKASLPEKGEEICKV
It is filed as cell membranes, CHO-K1, Membrane. Conditions: cho-k1.

The target of test [3] is T3, Neuropeptide Y receptor type 1 (Homo sapiens, UniProt P25929). Note: in other assays of this panel Not Active means under 50% inhibition at 10 µM.
T3 sequence (P25929 whole entry): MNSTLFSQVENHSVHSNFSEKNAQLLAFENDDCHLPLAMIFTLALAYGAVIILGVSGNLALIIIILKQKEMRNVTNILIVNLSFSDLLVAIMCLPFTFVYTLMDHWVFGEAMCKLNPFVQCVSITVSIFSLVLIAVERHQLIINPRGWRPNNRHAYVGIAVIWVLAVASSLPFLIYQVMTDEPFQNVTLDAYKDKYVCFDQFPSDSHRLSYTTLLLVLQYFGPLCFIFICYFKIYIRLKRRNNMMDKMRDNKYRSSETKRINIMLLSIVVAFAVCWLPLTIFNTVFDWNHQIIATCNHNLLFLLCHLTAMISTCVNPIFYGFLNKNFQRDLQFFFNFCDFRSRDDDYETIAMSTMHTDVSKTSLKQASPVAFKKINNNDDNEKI
The format is cell membranes, Membrane. Conditions: sk-n-mc.

Test [4] concerns the target Mitogen-activated protein kinase 3 (Homo sapiens, UniProt P27361). Description: DRUGMATRIX: Protein Serine/Threonine Kinase, ERK1 enzyme inhibition (substrate: Myelin Basic Protein). The conditions noted are these: Not Active = under 50% inhibition at 10 µM. Details: species or system Escherichia coli.
The target in test [5] is T4, 5-hydroxytryptamine receptor 1A (Rattus norvegicus, UniProt P19327). Note: in other assays of this panel Not Active means under 50% inhibition at 10 µM.
T4 sequence (P19327 whole entry): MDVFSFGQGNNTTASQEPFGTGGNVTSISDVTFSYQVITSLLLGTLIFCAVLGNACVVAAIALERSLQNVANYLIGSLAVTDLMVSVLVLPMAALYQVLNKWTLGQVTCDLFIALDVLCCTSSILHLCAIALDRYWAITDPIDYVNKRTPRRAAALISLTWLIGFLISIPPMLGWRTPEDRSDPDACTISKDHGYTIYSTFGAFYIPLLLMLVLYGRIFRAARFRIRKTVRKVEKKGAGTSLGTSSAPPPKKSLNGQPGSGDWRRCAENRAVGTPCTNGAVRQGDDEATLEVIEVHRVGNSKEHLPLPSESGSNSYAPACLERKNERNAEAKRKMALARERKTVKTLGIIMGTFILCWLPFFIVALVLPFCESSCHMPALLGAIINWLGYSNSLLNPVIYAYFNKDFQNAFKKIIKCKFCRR
It is filed as cell membranes, CHO-K1, Membrane. The conditions noted are these: cho-k1.

Another test concerns the target Acetylcholinesterase (Homo sapiens, UniProt P22303). Description: DRUGMATRIX: Acetylcholinesterase enzyme inhibition (substrate: acetylthiocholine). The format is cell-based, HEK293. The conditions noted are these: hek293; Not Active = under 50% inhibition at 10 µM.
Another test deals with T5, Adenosine receptor A3 (Homo sapiens, UniProt P0DMS8).
T5 sequence (P0DMS8 whole entry): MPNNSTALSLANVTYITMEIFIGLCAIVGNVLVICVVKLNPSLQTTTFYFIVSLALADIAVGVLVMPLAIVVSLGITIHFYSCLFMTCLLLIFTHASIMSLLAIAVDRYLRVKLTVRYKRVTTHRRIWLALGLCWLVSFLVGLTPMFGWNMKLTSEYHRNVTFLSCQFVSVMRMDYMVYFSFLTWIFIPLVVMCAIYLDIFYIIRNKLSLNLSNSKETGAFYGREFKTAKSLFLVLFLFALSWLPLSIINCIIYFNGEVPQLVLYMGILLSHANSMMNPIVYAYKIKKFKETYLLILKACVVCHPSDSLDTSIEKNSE
The format is cell membranes, CHO-K1, Membrane.

Sequence of Vasopressin V1a receptor (P37288 whole entry): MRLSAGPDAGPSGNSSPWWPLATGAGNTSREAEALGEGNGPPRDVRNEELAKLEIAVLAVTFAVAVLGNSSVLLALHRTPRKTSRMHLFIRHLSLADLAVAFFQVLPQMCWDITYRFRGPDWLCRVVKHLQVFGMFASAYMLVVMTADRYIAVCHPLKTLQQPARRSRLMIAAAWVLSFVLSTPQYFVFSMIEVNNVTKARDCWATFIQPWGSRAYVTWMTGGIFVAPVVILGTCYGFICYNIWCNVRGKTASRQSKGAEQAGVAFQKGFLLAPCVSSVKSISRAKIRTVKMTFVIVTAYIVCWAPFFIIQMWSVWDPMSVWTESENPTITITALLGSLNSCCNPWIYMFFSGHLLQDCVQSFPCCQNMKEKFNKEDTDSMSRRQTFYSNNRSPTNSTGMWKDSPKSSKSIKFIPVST
Sequence of Insulin receptor (P15127 27-759 limits assumed): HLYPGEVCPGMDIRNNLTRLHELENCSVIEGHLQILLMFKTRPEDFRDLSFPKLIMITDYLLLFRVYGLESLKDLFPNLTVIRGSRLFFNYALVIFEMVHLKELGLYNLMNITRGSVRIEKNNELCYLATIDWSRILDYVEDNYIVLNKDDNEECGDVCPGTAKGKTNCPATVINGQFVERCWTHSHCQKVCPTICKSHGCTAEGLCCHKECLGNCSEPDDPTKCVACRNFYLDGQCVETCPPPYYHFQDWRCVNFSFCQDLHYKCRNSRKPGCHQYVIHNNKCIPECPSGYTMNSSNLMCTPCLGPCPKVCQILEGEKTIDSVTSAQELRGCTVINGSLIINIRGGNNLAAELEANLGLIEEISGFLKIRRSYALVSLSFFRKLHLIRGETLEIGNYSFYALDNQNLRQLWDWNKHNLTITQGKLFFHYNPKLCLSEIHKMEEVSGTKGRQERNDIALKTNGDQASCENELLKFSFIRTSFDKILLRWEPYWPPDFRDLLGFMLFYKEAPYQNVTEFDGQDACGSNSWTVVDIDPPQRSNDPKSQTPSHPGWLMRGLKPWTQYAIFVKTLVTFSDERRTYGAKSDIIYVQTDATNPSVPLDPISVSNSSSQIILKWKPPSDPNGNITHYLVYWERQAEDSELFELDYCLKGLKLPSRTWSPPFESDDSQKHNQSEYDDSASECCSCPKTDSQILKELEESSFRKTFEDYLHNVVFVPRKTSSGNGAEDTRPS
Sequence of Insulin receptor (P15127 764-1383 limits assumed): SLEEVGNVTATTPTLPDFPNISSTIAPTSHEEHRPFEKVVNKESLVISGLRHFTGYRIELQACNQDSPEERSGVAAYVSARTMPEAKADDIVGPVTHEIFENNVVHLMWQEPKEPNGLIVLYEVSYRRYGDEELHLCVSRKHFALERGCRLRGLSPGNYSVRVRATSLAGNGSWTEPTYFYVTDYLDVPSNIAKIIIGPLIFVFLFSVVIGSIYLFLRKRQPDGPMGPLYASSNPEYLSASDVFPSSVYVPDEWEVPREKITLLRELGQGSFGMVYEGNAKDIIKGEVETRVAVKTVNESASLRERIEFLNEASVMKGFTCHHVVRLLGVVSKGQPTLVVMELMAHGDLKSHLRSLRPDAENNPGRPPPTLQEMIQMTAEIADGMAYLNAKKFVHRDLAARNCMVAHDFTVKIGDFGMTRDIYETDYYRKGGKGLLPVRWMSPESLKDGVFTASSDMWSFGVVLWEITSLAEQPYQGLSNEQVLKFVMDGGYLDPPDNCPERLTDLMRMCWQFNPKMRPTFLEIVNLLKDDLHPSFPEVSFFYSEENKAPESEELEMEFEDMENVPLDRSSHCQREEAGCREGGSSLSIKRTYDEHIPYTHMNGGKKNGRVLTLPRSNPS
Sequence of Mitogen-activated protein kinase 3 (P27361 whole entry): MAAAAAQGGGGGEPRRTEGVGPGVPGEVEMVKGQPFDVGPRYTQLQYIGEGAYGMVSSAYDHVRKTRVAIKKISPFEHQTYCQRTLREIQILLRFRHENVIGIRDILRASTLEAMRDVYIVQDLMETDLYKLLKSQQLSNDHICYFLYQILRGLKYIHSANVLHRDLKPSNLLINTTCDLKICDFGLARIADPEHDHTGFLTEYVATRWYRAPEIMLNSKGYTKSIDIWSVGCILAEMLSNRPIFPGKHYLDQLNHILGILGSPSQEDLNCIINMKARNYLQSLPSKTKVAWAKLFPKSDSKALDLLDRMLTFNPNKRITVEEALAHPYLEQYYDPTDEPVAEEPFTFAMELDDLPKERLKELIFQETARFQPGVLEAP
Sequence of Acetylcholinesterase (P22303 whole entry): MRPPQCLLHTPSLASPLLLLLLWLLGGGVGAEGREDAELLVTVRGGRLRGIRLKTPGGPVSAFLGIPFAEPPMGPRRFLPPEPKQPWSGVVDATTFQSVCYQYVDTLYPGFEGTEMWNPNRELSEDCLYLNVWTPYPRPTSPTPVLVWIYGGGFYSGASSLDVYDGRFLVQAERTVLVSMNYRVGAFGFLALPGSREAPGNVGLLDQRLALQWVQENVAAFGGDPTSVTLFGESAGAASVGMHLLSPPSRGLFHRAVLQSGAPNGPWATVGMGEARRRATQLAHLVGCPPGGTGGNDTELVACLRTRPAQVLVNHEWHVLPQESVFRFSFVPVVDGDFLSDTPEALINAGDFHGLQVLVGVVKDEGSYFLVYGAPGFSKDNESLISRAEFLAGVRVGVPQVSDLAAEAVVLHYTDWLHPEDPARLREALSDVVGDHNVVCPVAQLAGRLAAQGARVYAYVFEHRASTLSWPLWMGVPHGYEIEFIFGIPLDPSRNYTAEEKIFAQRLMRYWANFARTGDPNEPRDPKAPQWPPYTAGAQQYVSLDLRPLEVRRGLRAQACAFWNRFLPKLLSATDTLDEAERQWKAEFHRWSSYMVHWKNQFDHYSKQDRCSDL

As for `NC(=O)c1ccccc1O` [SALICYLAMIDE], the half-inhibitory concentration (IC50) result (in [1]; against Vasopressin V1a receptor; against Insulin receptor; in test [2]; in test [3]; in [4]) was “Not Active” in each case. For the same compound, the 50% inhibitory concentration (IC50) result (in test [5]; at Acetylcholinesterase; on Adenosine receptor A3 (cho-k1)) was “Not Active” each time.

`Cc1ncc([N+](=O)[O-])n1CC(C)O` (centres undefined) [SECNIDAZOLE]: the concentration for half-maximal inhibition (IC50) result (in [1]; on Vasopressin V1a receptor; at Insulin receptor; in test [2]; in test [3]; in test [4]) was “Not Active” each time. The IC50 entry (in [5]; at Acetylcholinesterase; against Adenosine receptor A3 (cho-k1)) was “Not Active” in each case.

For the compound `CN[C@@H]1[C@@H](O)[C@@H](O[C@@H]2[C@@H](O)[C@H](O[C@H]3OC(CN)=CC[C@H]3N)[C@@H](N)C[C@H]2N)OC[C@]1(C)O` [SISOMICIN], the IC50 entry (in test [1]; against Vasopressin V1a receptor; against Insulin receptor; in test [2]; in [3]; in test [4]) was “Not Active” throughout. Besides, the concentration for half-maximal inhibition (IC50) entry (in test [5]; at Acetylcholinesterase; against Adenosine receptor A3 (cho-k1)) was “Not Active” each time.

Turning to `CC(=O)S[C@@H]1CC2=CC(=O)CC[C@]2(C)[C@H]2CC[C@@]3(C)[C@@H](CC[C@@]34CCC(=O)O4)[C@H]12` [SPIRONOLACTONE], the 50% inhibitory concentration (IC50) result (in test [1]; against Vasopressin V1a receptor; against Insulin receptor; in [2]; in [3]; in test [4]) was “Not Active” throughout. For the same compound, the IC50 entry (in test [5]; against Acetylcholinesterase; against Adenosine receptor A3 (cho-k1)) was “Not Active” each time.

With `C[C@]12Cc3c[nH]nc3C[C@@H]1CC[C@@H]1[C@@H]2CC[C@@]2(C)[C@H]1CC[C@]2(C)O` [STANOZOLOL], the concentration for half-maximal inhibition (IC50) result (in test [1]; against Vasopressin V1a receptor; against Insulin receptor; in test [2]; in test [3]; in test [4]) was “Not Active” in each case. Moreover, the half-inhibitory concentration (IC50) entry is “Not Active” in [5], “Not Active” against Acetylcholinesterase and 8.33 µM on Adenosine receptor A3 (read-out: IC50). The inhibition constant Ki on Adenosine receptor A3 (read-out: Ki) was found to be 4.71 µM.

Regarding `CN(N=O)C(=O)N[C@@H](C=O)[C@@H](O)[C@H](O)[C@H](O)CO` [STREPTOZOCIN], the IC50 entry (in [1]; on Vasopressin V1a receptor; against Insulin receptor; in test [2]; in test [3]; in [4]) was “Not Active” in each case. For the same compound, the IC50 entry (in test [5]; against Acetylcholinesterase; against Adenosine receptor A3 (cho-k1)) was “Not Active” throughout.

Turning to `Cc1cc(NS(=O)(=O)c2ccc(N)cc2)no1` [SULFAMETHOXAZOLE], the IC50 result (in [1]; on Vasopressin V1a receptor; on Insulin receptor; in [2]; in test [3]; in [4]) was “Not Active” each time. Moreover, the half-inhibitory concentration (IC50) result (in test [5]; at Acetylcholinesterase; on Adenosine receptor A3 (cho-k1)) was “Not Active” in each case.

As to `Nc1ccc(S(N)(=O)=O)cc1` [SULFANILAMIDE], the half-inhibitory concentration (IC50) result (in test [1]; against Vasopressin V1a receptor; on Insulin receptor; in test [2]; in [3]; in test [4]) was “Not Active” throughout. Also, the IC50 entry (in test [5]; at Acetylcholinesterase; on Adenosine receptor A3 (cho-k1)) was “Not Active” throughout.

Turning to `Nc1ccc(S(=O)(=O)Nc2ccnn2-c2ccccc2)cc1` [SULFAPHENAZOLE], the IC50 entry (in test [1]; at Vasopressin V1a receptor; against Insulin receptor; in test [2]; in test [3]; in test [4]) was “Not Active” each time. Moreover, the IC50 result (in [5]; at Acetylcholinesterase; on Adenosine receptor A3 (cho-k1)) was “Not Active” in each case.

With `C=CC[C@@H]1/C=C(\C)C[C@H](C)C[C@H](OC)[C@H]2O[C@@](O)(C(=O)C(=O)N3CCCC[C@H]3C(=O)O[C@H](/C(C)=C/[C@@H]3CC[C@@H](O)[C@H](OC)C3)[C@H](C)[C@@H](O)CC1=O)[C@H](C)C[C@@H]2OC` [TACROLIMUS ANHYDROUS], the concentration for half-maximal inhibition (IC50) entry (in test [1]; at Vasopressin V1a receptor; on Insulin receptor; in test [2]; in test [3]; in test [4]) was “Not Active” each time. For the same compound, the half-inhibitory concentration (IC50) result (in test [5]; on Acetylcholinesterase; against Adenosine receptor A3 (cho-k1)) was “Not Active” throughout.

`CC1CN(c2cc3c(cc2F)c(=O)c(C(=O)O)cn3-c2ccc(F)cc2F)CCN1` (centres undefined) [TEMAFLOXACIN]: the IC50 result (in test [1]; against Vasopressin V1a receptor; at Insulin receptor; in [2]; in test [3]; in test [4]) was “Not Active” in each case. The IC50 result (in test [5]; against Acetylcholinesterase; against Adenosine receptor A3 (cho-k1)) was “Not Active” in each case.

On to `CC(C)(C)NCC(O)c1cc(O)cc(O)c1` (centres undefined) [TERBUTALINE], for which the concentration for half-maximal inhibition (IC50) entry (in [1]; on Vasopressin V1a receptor; at Insulin receptor; in test [2]; in test [3]; in test [4]) was “Not Active” throughout. Further, the IC50 entry (in test [5]; at Acetylcholinesterase; on Adenosine receptor A3 (cho-k1)) was “Not Active” in each case.
